{"source": "patent US7060293B1", "about": "“Powder-layered oral dosage forms” (Purdue Pharma, priority 1994, dated 2006)", "note": "Where a name gives a salt, the structure may show the parent alone."}
{"test": "not given", "settings": "entries without asterisk (not marked as performed at PRC); cited from earlier work", "units": {"Tapped Bulk Densities": "g/mL"}}
{"compound": "CCN(CC)CCNC(=O)c1cc(Cl)c(N)cc1OC", "note": "[Metoclopramide HCL]", "Tapped Bulk Densities": 0.5}
{"compound": "Doxycycline Metaphosphate Sodium Complex", "Tapped Bulk Densities": 0.49}
{"test": "Bulk density (poured and tapped) of drug powders and processing aid", "format": "physicochemical", "settings": "entries with asterisk: Bulk Densities performed at PRC", "units": {"Tapped Bulk Densities": "g/mL"}}
{"compound": "Cn1c(=O)c2[nH]cnc2n(C)c1=O", "note": "[Aminophylline USP, Aminophylline]", "Tapped Bulk Densities": 0.62}
{"compound": "O=C(O)Cc1ccccc1Nc1c(Cl)cccc1Cl", "note": "[Diclofenac Sodium]", "Tapped Bulk Densities": 0.31}
{"compound": "O=C1O[C@H]([C@@H](O)CO)C([O-])=C1O.[Na+]", "note": "[Sodium Ascorbate USP, Sodium Ascorbate]", "Tapped Bulk Densities": 0.66}
{"compound": "Cn1c(=O)c2[nH]cnc2n(C)c1=O", "note": "[Theophylline Anhydrous]", "Tapped Bulk Densities": 0.44}
{"compound": "COc1cccc(C2(O)CCCCC2CN(C)C)c1", "note": "(stereo not shown) [Tramadol HCL]", "Tapped Bulk Densities": 0.42}
{"test": "Bulk density (poured and tapped) of drug powders and processing aid", "format": "physicochemical", "settings": "powder used in the examples"}
{"compound": "CC(=O)Nc1ccc(O)cc1", "note": "[Acetaminophen]", "bulk density": "about 0.42 g/ml"}
{"compound": "CCN(CC)CCNC(=O)c1cc(Cl)c(N)cc1OC", "note": "[Metoclopramide HCL]", "bulk density": "about 0.5 g/ml"}
{"compound": "COc1cccc(C2(O)CCCCC2CN(C)C)c1", "note": "(stereo not shown) [Tramadol HCL]", "bulk density": "about 0.42 g/ml"}
{"compound": "O.OC[C@H]1O[C@@H](O[C@H]2[C@H](O)[C@@H](O)[C@@H](O)O[C@@H]2CO)[C@H](O)[C@@H](O)[C@H]1O", "note": "[lactose hydrous impalpable]", "bulk density": "0.56 g/mL", "tapped bulk density": "about 0.64 g/ml"}
{"compound": "Codeine Sulfate [Codeine Sulfate USP Medium Crystals Fine]", "bulk density": "about 0.6 g/ml"}
